Experimental data taken from ChEMBL document CHEMBL3885881, “DrugMatrix”.

Species on record: Rattus norvegicus
Assay: DrugMatrix - Regimen: Daily Repeat
Assay type: toxicity, organism-based, Sprague-Dawley
Set-up: regimen Daily Repeat, gender Male, age 6-8 weeks
Conditions: in vivo, po, route oral GAVAGE, […]; for ABSOLUTE BASOPHIL / ABSOLUTE EOSINOPHIL / ABSOLUTE LYMPHOCYTE / ABSOLUTE MONOCYTE / ABSOLUTE SEGMENTED NEUTROPHIL / BASOPHIL / EOSINOPHIL / ERYTHROCYTE COUNT / HEMATOCRIT / HEMOGLOBIN / LEUKOCYTE COUNT / LYMPHOCYTE / MEAN CORPUSCULAR HEMOGLOBIN / MEAN CORPUSCULAR HEMOGLOBIN CONCENTRATION / MEAN CORPUSCULAR VOLUME / MONOCYTE / NEUTROPHIL / NUCLEATED RED BLOOD CELLS / PLATELET COUNT: tissue Blood; for ALANINE AMINOTRANSFERASE / ALBUMIN / ALKALINE PHOSPHATASE / ASPARTATE AMINOTRANSFERASE / BLOOD UREA NITROGEN / CARBON DIOXIDE / CHLORIDE / CHOLESTEROL / CREATINE PHOSPHOKINASE / CREATININE / GLUCOSE / LACTATE DEHYDROGENASE / LIPASE / PHOSPHORUS / POTASSIUM / SODIUM / TOTAL BILIRUBIN / TOTAL PROTEIN / URIC ACID: tissue Plasma
[1] = 300 mg/kg, 120 h, dose level High, time 5 day
[2] = 72 h, dose 2.5 mg/Kg, dose level Low, time 3 day
[3] = 120 h, dose 2.5 mg/Kg, dose level Low, time 5 day

SMILES: CC(C)c1c(C(=O)Nc2ccccc2)c(-c2ccccc2)c(-c2ccc(F)cc2)n1CC[C@@H](O)C[C@@H](O)CC(=O)O [ATORVASTATIN]
- ABSOLUTE BASOPHIL [1]: 0 CELLS/uL
- ABSOLUTE EOSINOPHIL [1]: 0 CELLS/uL
- ABSOLUTE LYMPHOCYTE [1]: 8045.67 CELLS/uL
- ABSOLUTE MONOCYTE [1]: 74 CELLS/uL
- ABSOLUTE SEGMENTED NEUTROPHIL [1]: 647 CELLS/uL
- BASOPHIL [1]: 0%
- EOSINOPHIL [1]: 0%
- ERYTHROCYTE COUNT [1]: 6.15 x10E6/uL
- HEMATOCRIT [1]: 38.73%
- HEMOGLOBIN [1]: 15.2 G/DL
- LEUKOCYTE COUNT [1]: 8.77 x10E3/uL
- LYMPHOCYTE [1]: 92.33%
- MEAN CORPUSCULAR HEMOGLOBIN [1]: 24.73 pg
- MEAN CORPUSCULAR HEMOGLOBIN CONCENTRATION [1]: 39.27 G/DL
- MEAN CORPUSCULAR VOLUME [1]: 63.03 fL
- MONOCYTE [1]: 0.67%
- NEUTROPHIL [1]: 7%
- NUCLEATED RED BLOOD CELLS [1]: 0 /100WBC
- PLATELET COUNT [1]: 1244.33 x10E3/uL
- ALANINE AMINOTRANSFERASE [1]: 175.67 u/L
- ALBUMIN [1]: 4.63 G/DL
- ALKALINE PHOSPHATASE [1]: 577.33 u/L
- ASPARTATE AMINOTRANSFERASE [1]: 151.33 u/L
- BLOOD UREA NITROGEN [1]: 10.67 mg/dL
- CARBON DIOXIDE [1]: 24.67 mmol/L
- CHLORIDE [1]: 101.67 MEQ/L
- CHOLESTEROL [1]: 52.67 mg/dL
- CREATINE PHOSPHOKINASE [1]: 399.67 u/L
- CREATININE [1]: 0.22 mg/dL
- GLUCOSE [1]: 152.67 mg/dL
- LACTATE DEHYDROGENASE [1]: 140.33 u/L
- LIPASE [1]: 60.67 u/L
- PHOSPHORUS [1]: 9.5 mg/dL
- POTASSIUM [1]: 5.73 MEQ/L
- SODIUM [1]: 145.97 MEQ/L
- TOTAL BILIRUBIN [1]: 0.37 mg/dL
- TOTAL PROTEIN [1]: 6.07 G/DL
- URIC ACID [1]: 0.9 mg/dL
- ABSOLUTE BASOPHIL [2]: 0 CELLS/uL
- ABSOLUTE EOSINOPHIL [2]: 0 CELLS/uL
- ABSOLUTE LYMPHOCYTE [2]: 8659.67 CELLS/uL
- ABSOLUTE MONOCYTE [2]: 90 CELLS/uL
- ABSOLUTE SEGMENTED NEUTROPHIL [2]: 583.67 CELLS/uL
- BASOPHIL [2]: 0%
- EOSINOPHIL [2]: 0%
- ERYTHROCYTE COUNT [2]: 5.09 x10E6/uL
- HEMATOCRIT [2]: 32.3%
- HEMOGLOBIN [2]: 12.6 G/DL
- LEUKOCYTE COUNT [2]: 9.33 x10E3/uL
- LYMPHOCYTE [2]: 92.67%
- MEAN CORPUSCULAR HEMOGLOBIN [2]: 24.77 pg
- MEAN CORPUSCULAR HEMOGLOBIN CONCENTRATION [2]: 39.03 G/DL
- MEAN CORPUSCULAR VOLUME [2]: 63.43 fL
- MONOCYTE [2]: 1%
- NEUTROPHIL [2]: 6.33%
- NUCLEATED RED BLOOD CELLS [2]: 0 /100WBC
- PLATELET COUNT [2]: 1132.33 x10E3/uL
- ALANINE AMINOTRANSFERASE [2]: 62 u/L
- ALBUMIN [2]: 4.07 G/DL
- ALKALINE PHOSPHATASE [2]: 560.67 u/L
- ASPARTATE AMINOTRANSFERASE [2]: 82.67 u/L
- BLOOD UREA NITROGEN [2]: 12.33 mg/dL
- CARBON DIOXIDE [2]: 26 mmol/L
- CHLORIDE [2]: 112 MEQ/L
- CHOLESTEROL [2]: 33.67 mg/dL
- CREATINE PHOSPHOKINASE [2]: 218.33 u/L
- CREATININE [2]: 0.14 mg/dL
- GLUCOSE [2]: 166.67 mg/dL
- LACTATE DEHYDROGENASE [2]: 156.33 u/L
- LIPASE [2]: 9.33 u/L
- PHOSPHORUS [2]: 9.23 mg/dL
- POTASSIUM [2]: 5.66 MEQ/L
- SODIUM [2]: 156.57 MEQ/L
- TOTAL BILIRUBIN [2]: 0.17 mg/dL
- TOTAL PROTEIN [2]: 5.77 G/DL
- URIC ACID [2]: 0.9 mg/dL
- ABSOLUTE BASOPHIL [3]: 0 CELLS/uL
- ABSOLUTE EOSINOPHIL [3]: 60.67 CELLS/uL
- ABSOLUTE LYMPHOCYTE [3]: 7091.67 CELLS/uL
- ABSOLUTE MONOCYTE [3]: 0 CELLS/uL
- ABSOLUTE SEGMENTED NEUTROPHIL [3]: 581 CELLS/uL
- BASOPHIL [3]: 0%
- EOSINOPHIL [3]: 0.67%
- ERYTHROCYTE COUNT [3]: 5.48 x10E6/uL
- HEMATOCRIT [3]: 34.67%
- HEMOGLOBIN [3]: 13.4 G/DL
- LEUKOCYTE COUNT [3]: 7.73 x10E3/uL
- LYMPHOCYTE [3]: 91.67%
- MEAN CORPUSCULAR HEMOGLOBIN [3]: 24.53 pg
- MEAN CORPUSCULAR HEMOGLOBIN CONCENTRATION [3]: 38.7 G/DL
- MEAN CORPUSCULAR VOLUME [3]: 63.4 fL
- MONOCYTE [3]: 0%
- NEUTROPHIL [3]: 7.67%
- NUCLEATED RED BLOOD CELLS [3]: 0 /100WBC
- PLATELET COUNT [3]: 1069.33 x10E3/uL
- ALANINE AMINOTRANSFERASE [3]: 63.33 u/L
- ALBUMIN [3]: 3.97 G/DL
- ALKALINE PHOSPHATASE [3]: 478 u/L
- ASPARTATE AMINOTRANSFERASE [3]: 92 u/L
- BLOOD UREA NITROGEN [3]: 11.33 mg/dL
- CARBON DIOXIDE [3]: 29.67 mmol/L
- CHLORIDE [3]: 98.33 MEQ/L
- CHOLESTEROL [3]: 40.67 mg/dL
- CREATINE PHOSPHOKINASE [3]: 375.33 u/L
- CREATININE [3]: 0.14 mg/dL
- GLUCOSE [3]: 160 mg/dL
- LACTATE DEHYDROGENASE [3]: 97.33 u/L
- LIPASE [3]: 9 u/L
- PHOSPHORUS [3]: 11.03 mg/dL
- POTASSIUM [3]: 5.44 MEQ/L
- SODIUM [3]: 144.03 MEQ/L
- TOTAL BILIRUBIN [3]: 0.13 mg/dL
- TOTAL PROTEIN [3]: 6.13 G/DL
- URIC ACID [3]: 0.43 mg/dL
